# Test results published in patent US6326371A, “Pyrudyl and pyrimidylpiperazine derivatives” (Pharmacia Aktiebolag, priority 1992, dated 2001).
# Counter-ions that a name gives are not always drawn.
# Target: T1, 5-HT2 receptors (Rattus norvegicus, UniProt P14842)
# T1 construct: essentially as described by Leysen et al. (Mol. Pharmacol. 21, 301-14, 1982) using; from tissue
# Test: Affinity to 5-HT2 receptors (Test 1, 3H-ketanserin binding)
# Settings: 3H-ketanserin as ligand
# Procedure: Test 1. Affinity to 5-HT2 receptors.
# The binding assay is carried out essentially as described by Leysen et al. (Mol. Pharmacol. 21, 301-14, 1982) using ^3 H-ketanserin as ligand.
# T1 sequence (P14842 whole entry): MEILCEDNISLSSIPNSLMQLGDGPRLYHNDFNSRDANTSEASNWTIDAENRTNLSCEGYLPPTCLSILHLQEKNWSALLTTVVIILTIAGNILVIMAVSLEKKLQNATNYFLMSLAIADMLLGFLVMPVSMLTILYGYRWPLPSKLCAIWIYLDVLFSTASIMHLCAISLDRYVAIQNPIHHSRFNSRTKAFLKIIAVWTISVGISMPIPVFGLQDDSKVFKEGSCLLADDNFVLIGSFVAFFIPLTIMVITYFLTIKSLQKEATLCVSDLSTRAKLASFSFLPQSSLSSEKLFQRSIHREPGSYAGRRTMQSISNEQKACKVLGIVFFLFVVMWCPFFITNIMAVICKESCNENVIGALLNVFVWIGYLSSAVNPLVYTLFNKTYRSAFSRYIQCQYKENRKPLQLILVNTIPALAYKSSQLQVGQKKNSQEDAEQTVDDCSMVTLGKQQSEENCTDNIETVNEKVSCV
row,SMILES,Ki [nM]
1,"Fc1ccc(N(CCCN2CCN(c3ccccn3)CC2)c2ccc(F)cc2)cc1 [1:1, 1-{3-[Bis-(4-fluorophenyl)amino]propyl}-4-(2-pyridyl)-piperazine-dihydrochloride]",18
2,"Fc1ccc(C(OCCN2CCN(c3ccccn3)CC2)c2ccc(F)cc2)cc1 [3:1, 4-{2-[(4.4'-Difluorobenzhydryl)oxyl]ethyl}-1-(2-pyridyl)piperazine dihydrochloride]",11
